Experimental data taken from patent US6794397B2, “Substituted nicotinamides and analogs as activators of caspases and inducers of apoptosis and the use thereof” (Cytovia, Inc., priority 2000, dated 2004).
pIC50: −log10 of the molar value. “Also recorded” adds a separate entry of the source.

What was measured:
[1] = tested on: T47D; assay: Cell cycle arrest and apoptosis in T47D cells (propidium iodide flow cytometry); assay type: cell-based, Human; settings: 48 h
Method: T47D, a breast cancer cell line, was maintained and harvested as described in Example 71. […] As a control, cells were also incubated with equivalent amount of solvent as control (DMSO). Cells were harvested at 1,200 rpm and washed twice with 5 mM EDTA/PBS. Cells were then resuspended in 300 μl EDTA/PBS and 700 μl of 100% ethanol, vortexed and incubated at room temperature for 1 h. Samples were spun down at 1,200 rpm for 5 min and the supernatant was removed. A solution containing 100 μg/ml of propidium iodide and 1 mg/ml of RNAse A (fresh) was added to the samples and incubated for 1 h at room temperature. Samples were then transferred to 12×75 mm polystyrene tubes and analyzed on a flow cytometer. All flow cytometry analyses were performed on FACScalibur (Becton Dickinson) using Cell Quest analysis software. On the x-axis is plotted the fluorescence intensity and on the y-axis is plotted the number of cells with that fluorescence intensity. […] An increase in the sub-diploid DNA content of cells (marker M1 region, FIG. 3) is also seen to increase from 2% to 25% with compound treatment. The sub-diploid amount of DNA (M1) is indicative of apoptotic cells which have undergone DNA degradation or fragmentation.

[2] = tested on: HeLa cells; assay: Inhibition of proliferation / colony formation of HeLa cells; assay type: cell-based; settings: Homo sapiens, 48 hr treatment, colonies counted after 5-7 days
Method: HeLa cells were grown according to media component mixtures designated by American Type Culture Collection +10% FCS (Invitrogen Corporation, Life Technologies Division), in a 5% CO2 −95% humidity incubator at 37° C. In a well of a 96 well plate, 30,000 cells were seeded and treated with compound at the indicated concentrations for 48 hr in a 5% CO2−95% humidity incubator at 37° C. Control wells were treated with the same amount of solvent (DMSO) as the compound samples. After the indicated treatment time, the supernatant was removed to a sterile culture tube and the wells washed with phosphate buffered saline, and the adherent cells trypsinized for 5 min. The trypsinzed cells were added to the culture supernatant, cells were collected (1,200 rpm, 10 min), washed with phosphate buffered saline, and resuspended in fresh media. The cells were counted for trypan blue negative cells, and the cells were diluted with fresh media to 1,000 cells/ml. To a well of a 24-well plate, 0.1 ml of the cell suspension was added along with 1 ml of fresh media (cell suspensions were passed through a 22G needle several times just before plating to form single cell suspensions). […] Colonies are counted when the sizes reached greater than 50 cells per colony. […] Colonies are rinsed with water and the colonies counted and the fraction surviving expressed as the percentage of the number of control colonies.

[3] = tested on: T47D; assay: Caspase cascade activation assay (N-(Ac-DEVD)-N'-ethoxycarbonyl-R110 fluorogenic substrate) in T47D cells; assay type: cell-based, Human; settings: 24 h incubation; for EC50: Homo sapiens, sigmoidal dose-response, read-out: EC50 (nM) caspase potency; for Caspase activity Ratio: ratio of net RFU of test compound to control, 0.16 to 10 μM final
Method: (§1) Human breast cancer cell lines T47D and ZR75-1 were grown according to media component mixtures designated by American Type Culture Collection +10% FCS (Invitrogen Corporation, Life Technologies Division), in a 5% CO2 −95% humidity incubator at 37° C. T47D and ZR75-1 cells were maintained at a cell density between 30 and 80% confluency at a cell density of 0.1 to 0.6×10^6 cells/ml. Cells were harvested at 600xg and resuspended at 0.65×10^6 cells/ml into appropriate media +10% FCS. An aliquot of 45 μl of cells was added to a well of a 96-well microtiter plate containing 5 μl of a 10% DMSO in RPMI-1640 media solution containing 1.6 to 100 μM of N-(4-methoxy-2-nitrophenyl)-3-pyridinecarboxamide or other test compound (0.16 to 10 μM final). An aliquot of 45 μl of cells was added to a well of a 96-well microtiter plate containing 5 μl of a 10% DMSO in RPMI-1640 media solution without test compound as the control sample. The samples were mixed by agitation and then incubated at 37 C. for 24 h in a 5% CO2 −95% humidity incubator. After incubation, the samples were removed from the incubator and 50 μl of a solution containing 20 μM of N-(Ac-DEVD)-N′-ethoxycarbonyl-R110 (SEQ ID NO: 1) fluorogenic substrate (Cytovia, Inc.; WO99/18856), 20% sucrose (Sigma), 20 mM DTT (Sigma), 200 mM NaCl (Sigma), 40 mM Na PIPES buffer pH 7.2 (Sigma), and 500 μg/ml lysolecithin (Calbiochem) was added. The samples were mixed by agitation and incubated at room temperature. Using a fluorescent plate reader (Model 1420 Wallac Instruments), an initial reading (T=0) was made approximately 1-2 min after addition of the substrate solution, employing excitation at 485 nm and emission at 530 nm, to determine the background fluorescence of the control sample. After the 3 h incubation, the samples were read for fluorescence as above (T=3 h).
(§2) The Relative Fluorescence Unit values (RFU) were used to calculate the sample readings as follows:
(§3) RFU(T=3h)−Control RFU(T=0)=Net RFU(T=3h).
(§4) The activity of caspase cascade activation was determined by the ratio of the net RFU value for N-(4-methoxy-2-nitrophenyl)-3-pyridinecarboxamide or other test compound to that of control samples. The EC50 (nM) was determined by a sigmoidal dose-response calculation (Prism 2.0, GraphPad Software Inc.).

[4] = tested on: ZR75-1; assay: Caspase cascade activation assay (N-(Ac-DEVD)-N'-ethoxycarbonyl-R110 fluorogenic substrate) in ZR75-1 cells; assay type: cell-based, Human; settings: for EC50: Homo sapiens, ZR-75-1, 24 h incubation, sigmoidal dose-response, read-out: EC50 (nM) caspase potency; for Caspase activity Ratio: ratio of net RFU of test compound to control, 24 h incubation, 0.16 to 10 μM final
Method: as §1, §2, §3, §4

[5] = tested on: Jurkat cells; assay: Nuclear fragmentation in Jurkat cells (Syto16 staining); assay type: cell-based; settings: 5 μM, 24 h, Syto16 stain
Method: The ability of N-(4-methoxy-2-nitrophenyl)-3-pyridinecarboxamide to induce nuclear fragmentation was tested by treatment of Jurkat cells with the test compound followed by staining of the nucleus with Sytol6, a fluorescent DNA dye (Molecular Probes, Eugene, Oreg.). The nuclei of Jurkat cells treated with vehicle control (DMSO) are seen to be round with dispersed chromatin that is moderately stained with Sytol6 (FIG. 1A).

[6] = tested on: Jurkat cells; assay: Mitotic arrest in Jurkat cells (mitotic figures counted); assay type: cell-based; settings: 0.02 μM to 5 μM, 6 h
Method: Jurkat cells were incubated with a range of concentrations of N-(4-methoxy-2-nitrophenyl)-3-pyridinecarboxamide (0.02 μM to 5 μM) for 6 h under normal growth conditions; control cultures were treated with DMSO vehicle. The cells were then treated for 20 min. with 800 nM Syto 16 (Molecular Probes, Eugene, OR). Cytospin preparations were then prepared and the samples were viewed by fluorescent microscopy using a fluorescein filter set. For each concentration of test compound, the number of mitotic figures were counted and expressed as a percentage of the total number of cells. Three fields from each condition were evaluated and the mean and SEM were calculated and plotted as a function of drug concentration (FIG. 2).

SMILES	G1 (M2) cells ([1]; 1 μM)	G2/M phase (M4) cells ([1]; 1 μM)	sub-G1 / sub-diploid DNA content of cells (M1) ([1]; 1 μM)	pIC50 [2]	EC50 [3] [nM]	Caspase activity Ratio [3]	EC50 [4] [nM]	Caspase activity Ratio [4]	G1 (M2) cells ([1]; 10 μM)	G2/M DNA content (M4) cells ([1]; 10 μM)	sub-diploid DNA content of cells (M1), in words ([1]; 10 μM)	sub-diploid DNA content of cells (M1) ([1]; 10 μM, control 2%) [%]	Nuclear fragmentation (nuclear morphology) [5]	Mitotic arrest [6]
CCOc1ccc(NC(=O)c2ccc(Cl)nc2)c([N+](=O)[O-])c1 [Example 8, 6-Chloro-N-(4-ethoxy-2-nitrophenyl)-3-pyridinecarboxamide]	a reduction in the G1(M2)	accumulation of T47D cells in the G2/M phase; also recorded: an increase in the G2/M (M4)	increase substantially over control cells	~7.00	153	5.0	77	6.3	–	–	–	–	–	–
COc1ccc(NC(=O)c2cccnc2)c([N+](=O)[O-])c1 [Example 29, N-(4-Methoxy-2-nitrophenyl)-3-pyridinecarboxamide]	–	–	–	–	1800	5.8	1000	6.4	a reduction in the G1(M2)	increase in G2/M DNA content; also recorded: an increase in the G2/M (M4)	increase	25	shrunken and fragmented nuclei	effective inducer of mitotic arrest; also recorded: increasing percent of mitotic arrest with increasing drug concentration
